These results are taken from patent US20150017673A1, “COMPOSITIONS AND METHODS FOR DRUG-SENSITIZATION OR INHIBITION OF A CANCER CELL” (priority 2012, published 2015).

In general, pIC50 refers to −log10 of the IC50, conventionally taken in molar units. As a reminder, the IC50 is the concentration that inhibits the measured activity by half.

Each structure is given as a SMILES string. pIC50: −log10 of the molar value. Like-named read-outs stand apart in the source and are kept apart here. Bounds are passed on as bounds.

The subject of data set [1] is T lymphoblastoid leukemia MOLT-4. Kind of data set: Cell growth assay on MOLT-4 cells. It counts as cell-based. The protocol: Compositions were tested on CHOP-resistant G3 NHL cells that had been cultivated in RPMI medium for five days. Prior to assay, the cells were counted by haemocytometer and cell concentration standardized to 625,000 cells/ml. Test drugs were solubilized in 100% DMSO and then diluted to final assay concentration with 0.1M phosphate buffered saline (PBS) and a final DMSO concentration of 0.5%. Cells were added to assay plates containing the test drugs (rifabutin+148 ng/ml, 74 ng/ml, 37 ng/ml, or 0 ng/ml doxorubicin) and allowed to incubate for 96 hours at 37° C. and 5% CO2. The metabolic dye rezasurin was added to the wells of the assay plate at a final concentration of 20 μg/ml and the plates were incubated for an additional 24 hours. The plates were then read in a BMG Polarstar plate reader at wavelength (573-605) and the data plotted as OD versus increasing dilutions (i.e. decreasing total amounts) of rifabutin derivative concentration.
Additional cell lines used include: ovarian cancer OVCAR-8, T lymphoblastoid leukemia MOLT-4, dexamethasone-resistant multiple myeloma MM.1R, myeloid leukemia cells HL-60, osteosarcoma cells U-2 OS, and myeloma RPMI 8226.

In data set [2] the test system is human ovarian cancer cell line SK-OV-3. Kind of data set: SK-OV-3 xenograft efficacy study in SCID mice. It counts as in vivo. To be noted: after 19 days treatment; DOX only 3.3 mg/kg i.v. weekly. Here is the method: In a fifth efficacy study, we generated xenografts of the human ovarian cancer cell line SK-OV-3, a cell line considered doxorubicin-resistant, by bilateral subcutaneous (s.c.) injection of 1×10^7 tumor cells to establish localized tumors in 6-8 week old female SCID mice. Using rifabutin co-administered with DOX, in vivo efficacy was assessed. […] Cycles of Dox or Dox+rifabutin were given once a week for 4 cycles. This cyclical dosing scheme of mouse models has precedent in the literature and is intended to mimic the cycles of DOXIL® (Centocor Ortho Biotech Products, LP, Raritan, N.J.) given in the clinic. Rifabutin was administered on the day of each DOX treatment and by gavage. Mouse body weight and tumor size were monitored.

Data set [3] deals with CHOP-sensitive NHL cell line CRL2631. Put plainly: Cell growth assay (resazurin) on CHOP-sensitive CRL2631 NHL cells. To be noted: CRL2631. The class given is cell-based, human. Background: Resazurin is reduced to fluorescent resorufin, in cell work by metabolically active cells.
The test system of data set [4] is lymphoma cell line G3. Put plainly: Cell growth assay (resazurin fluorescence) on CHOP-resistant G3 NHL cells. It counts as cell-based, human. An outline of the steps: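 CHOP-resistant G3 NHL cells grown five days in RPMI medium were counted by haemocytometer and set to 625,000 cells/ml. They were then added to plates holding test drug, first dissolved in 100% DMSO and diluted in 0.1M PBS to 0.5% final DMSO. Plates incubated 96 hours at 37° C. and 5% CO2. Resazurin at 20 μg/ml was added for a further 24 hours, and plates were read on a BMG Polarstar at 573-605.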

The conditions of data set [5]: after administration; cited from earlier work.
Data set [6] relates to multi-drug resistant ovarian cancer cell line NCI/ADR-RES. Kind of data set: Cell growth assay on NCI/ADR-RES cells. The class given is cell-based. As to conditions: ADR-RES.
The subject of data set [7] is G3 CHOP-resistant NHL cells. As to conditions: fourth study; doxorubicin only group. Here is the method:
In a first efficacy study, 6-8 week old female SCID mice (7 mice per treatment arm) were injected subcutaneously on both flanks with 1×10^7 G3 CHOP-resistant NHL cells. Once palpable tumors (about […] size) appeared, therapies (CHOP or CHOP+rifabutin) were started. CHOP was administered at the maximum tolerated dose (cyclophosphamide, 40 mg/kg i.v.; doxorubicin, 3.3 mg/kg i.v.; vincristine, 0.5 mg/kg i.v.; and prednisone, 0.2 mg/kg orally daily for 5 d) weekly for 3 weeks. Rifabutin in an amount of 100 mg/kg was administered on the day of each CHOP treatment and 24-hours later by gavage. Mouse body weight and tumor size were monitored every two days and tumor size measured by caliper. The tumor volume formula (L*W*W)/2 was used to calculate tumor mass.
A second efficacy study was conducted where mice were treated before the appearance of palpable tumors. In that experiment, one week after transplantation of CHOP-resistant G3 cells, one group (7 mice) was treated with CHOP-only and a second group (8 mice) was treated with CHOP+rifabutin.
A third study was conducted in which mice injected with CHOP-resistant G3 cells received reduced dosages of CHOP in combination with 33 mg/kg rifabutin. CHOP+rifabutin was administered weekly beginning one week post-inoculation. Control mice were given no CHOP or rifabutin.
SCID mice were injected with CHOP-resistant G3 cells in the same manner as the first efficacy study above. Treatments began 2 weeks post-inoculation and were administered twice weekly.

Where [8] appears, read: Homo sapiens, therapeutic drug alone, read-out: IC50.
Where [9] appears, read: Homo sapiens, therapeutic drug with Rifabutin, read-out: IC50 (μM) with Rifabutin.

As to `COc1cccc2c1C(=O)c1c(O)c3c(c(O)c1C2=O)C[C@@](O)(C(=O)CO)C[C@@H]3O[C@H]1C[C@H](N)[C@H](O)[C@H](C)O1` [Doxorubicin, doxorubicin], the pIC50 was 7.52 in data set [1] (setting [8]); 6.46 in data set [3] (setting [8]); 5.63 in data set [4] (Homo sapiens, analog alone, lymphoma cell line G3, read-out: IC50); under 4.49 in data set [6] (Homo sapiens, NCI/ADR-RES, therapeutic drug alone, read-out: IC50). Also, the IC50 turned out to be 0.01 µM in data set [1] (setting [9]); 0.12 µM in data set [3] (setting [9]); 0.25 µM in data set [4] (Homo sapiens, therapeutic drug with Rifabutin, G3, read-out: IC50 (μM) with Rifabutin); 6.59 µM in data set [6] (Homo sapiens, NCI/ADR-RES, therapeutic drug with Rifabutin, read-out: IC50 (μM) with Rifabutin). The “Fold increase in potency” value in data set [1] (with vs without Rifabutin) is listed as 3 fold; in data set [3] (with vs without Rifabutin) it was 2.9 fold; in data set [4] (with vs without Rifabutin, G3), 9.4 fold; in data set [6] (with vs without Rifabutin), over 4.9 fold. In addition, in data set [2], the average tumor volume worked out at 587 mm^3. Further, the “time of maximal tissue absorption” value in data set [5] was 48 h. For the same compound, in data set [7], the mean lifespan is listed as 34.6. Moreover, the median lifespan in data set [7] is 33. Further, in data set [7], the “times as likely to die before those treated with doxorubicin+RTI-81” value is listed as 10.37 times.
